ChEMBL document CHEMBL3526110, “Preclinical evaluation of the metabolism and disposition of RRx-001, a novel investigative anticancer agent” (Drug Metab Dispos, 2012)

Legend:
Format in all cases: ADME, tissue-based
Blood [1] = experiment: Retention time in human whole blood in presence of 0.1% formic acid in acetonitrile at 20 uM by LC-MS/MS method
Blood [2] = experiment: Retention time in human whole blood in presence of 0.1% formic acid in water at 20 uM by LC-MS/MS method
Blood [3] = experiment: Retention time in rat whole blood in presence of 0.1% formic acid in acetonitrile at 20 uM by LC-MS/MS method
Blood [4] = experiment: Drug metabolism in rat whole blood treated with 20 uM RRx-001 assessed as compound formation by LC-MS/MS method
Blood [5] = experiment: Drug metabolism in human whole blood treated with 20 uM RRx-001 assessed as compound formation by LC-MS/MS method
Blood [6] = experiment: Retention time in rat whole blood in presence of 0.1% formic acid in water at 20 uM by LC-MS/MS method

SMILES	Retention_time (Blood [1])	Retention_time (Blood [2])	Retention_time (Blood [3])	Drug metabolism (Blood [4])	Drug metabolism (Blood [5])	Retention_time (Blood [6])
N[C@@H](CSCC(=O)N1CC([N+](=O)[O-])C1)C(=O)O	4.3 min	4.7 min	4.3 min	metabolite_detected	metabolite_detected	4.7 min
N[C@@H](CSCC(=O)N1CC([N+](=O)[O-])([N+](=O)[O-])C1)C(=O)NCC(=O)O	6.2 min	8 min	6.2 min	metabolite_detected	metabolite_detected	8 min
